Results from patent US20240415914A1, “Water Dispersible Cannabinoid Compositions” (priority 2021, published 2024).

Test: Stability of cannabinoid and Vitamin E components of Beverage 1 (AB White) stored at 8° C. and 21-25° C., LCMSMS over 570 days
Format: physicochemical
Settings: for Stability in AB White, 8° C. (content by LCMSMS): beverage stored at 8° C.; for Stability in AB White, 21-25° C. (content by LCMSMS): beverage stored at 21-25° C.
Experimental: The LCMSMS was calibrated for 0-1000 ng/ml cannabinoids with the same resin material used in the preparation of the concentrates. At each time period, 100 ml of beverage was diluted with 10 ml of methanol and injected into the LCMSMS for analysis.

SMILES: CCCCCc1cc(O)c2c(c1)OC(C)(CCC=C(C)C)C=C2 (centres unmarked) [CBC, cannabichromene]
- Stability in AB White, 8° C. (content by LCMSMS) (day 0): 0.320 µg/mL
- Stability in AB White, 8° C. (content by LCMSMS) (day 1): 0.314 µg/mL
- Stability in AB White, 8° C. (content by LCMSMS) (day 2): 0.315 µg/mL
- Stability in AB White, 8° C. (content by LCMSMS) (day 3): 0.322 µg/mL
- Stability in AB White, 8° C. (content by LCMSMS) (day 5): 0.322 µg/mL
- Stability in AB White, 8° C. (content by LCMSMS) (day 8): 0.318 µg/mL
- Stability in AB White, 8° C. (content by LCMSMS) (day 9): 0.319 µg/mL
- Stability in AB White, 8° C. (content by LCMSMS) (day 10): 0.314 µg/mL
- Stability in AB White, 8° C. (content by LCMSMS) (day 11): 0.314 µg/mL
- Stability in AB White, 8° C. (content by LCMSMS) (day 12): 0.319 µg/mL
- Stability in AB White, 8° C. (content by LCMSMS) (day 15): 0.317 µg/mL
- Stability in AB White, 8° C. (content by LCMSMS) (day 16): 0.320 µg/mL
- Stability in AB White, 8° C. (content by LCMSMS) (day 17): 0.315 µg/mL
- Stability in AB White, 8° C. (content by LCMSMS) (day 18): 0.312 µg/mL
- Stability in AB White, 8° C. (content by LCMSMS) (day 19): 0.317 µg/mL
- Stability in AB White, 8° C. (content by LCMSMS) (day 22): 0.315 µg/mL
- Stability in AB White, 8° C. (content by LCMSMS) (day 23): 0.321 µg/mL
- Stability in AB White, 8° C. (content by LCMSMS) (day 24): 0.316 µg/mL
- Stability in AB White, 8° C. (content by LCMSMS) (day 25): 0.310 µg/mL
- Stability in AB White, 8° C. (content by LCMSMS) (day 26): 0.316 µg/mL
- Stability in AB White, 8° C. (content by LCMSMS) (day 29): 0.321 µg/mL
- Stability in AB White, 8° C. (content by LCMSMS) (day 30): 0.317 µg/mL
- Stability in AB White, 8° C. (content by LCMSMS) (day 60): 0.316 µg/mL
- Stability in AB White, 8° C. (content by LCMSMS) (day 90): 0.318 µg/mL
- Stability in AB White, 8° C. (content by LCMSMS) (day 120): 0.311 µg/mL
- Stability in AB White, 8° C. (content by LCMSMS) (day 150): 0.314 µg/mL
- Stability in AB White, 8° C. (content by LCMSMS) (day 180): 0.319 µg/mL
- Stability in AB White, 8° C. (content by LCMSMS) (day 210): 0.309 µg/mL
- Stability in AB White, 8° C. (content by LCMSMS) (day 240): 0.316 µg/mL
- Stability in AB White, 8° C. (content by LCMSMS) (day 270): 0.316 µg/mL
- Stability in AB White, 8° C. (content by LCMSMS) (day 300): 0.313 µg/mL
- Stability in AB White, 8° C. (content by LCMSMS) (day 330): 0.316 µg/mL
- Stability in AB White, 8° C. (content by LCMSMS) (day 360): 0.306 µg/mL
- Stability in AB White, 8° C. (content by LCMSMS) (day 390): 0.310 µg/mL
- Stability in AB White, 8° C. (content by LCMSMS) (day 420): 0.307 µg/mL
- Stability in AB White, 8° C. (content by LCMSMS) (day 450): 0.312 µg/mL
- Stability in AB White, 8° C. (content by LCMSMS) (day 480): 0.305 µg/mL
- Stability in AB White, 8° C. (content by LCMSMS) (day 510): 0.295 µg/mL
- Stability in AB White, 8° C. (content by LCMSMS) (day 540): 0.299 µg/mL
- Stability in AB White, 8° C. (content by LCMSMS) (day 570): 0.293 µg/mL
- Stability in AB White, 21-25° C. (content by LCMSMS) (day 0): 0.320 µg/mL
- Stability in AB White, 21-25° C. (content by LCMSMS) (day 1): 0.313 µg/mL
- Stability in AB White, 21-25° C. (content by LCMSMS) (day 2): 0.318 µg/mL
- Stability in AB White, 21-25° C. (content by LCMSMS) (day 3): 0.311 µg/mL
- Stability in AB White, 21-25° C. (content by LCMSMS) (day 5): 0.323 µg/mL
- Stability in AB White, 21-25° C. (content by LCMSMS) (day 8): 0.319 µg/mL
- Stability in AB White, 21-25° C. (content by LCMSMS) (day 9): 0.307 µg/mL
- Stability in AB White, 21-25° C. (content by LCMSMS) (day 10): 0.312 µg/mL
- Stability in AB White, 21-25° C. (content by LCMSMS) (day 11): 0.311 µg/mL
- Stability in AB White, 21-25° C. (content by LCMSMS) (day 12): 0.316 µg/mL
- Stability in AB White, 21-25° C. (content by LCMSMS) (day 15): 0.311 µg/mL
- Stability in AB White, 21-25° C. (content by LCMSMS) (day 16): 0.321 µg/mL
- Stability in AB White, 21-25° C. (content by LCMSMS) (day 17): 0.323 µg/mL
- Stability in AB White, 21-25° C. (content by LCMSMS) (day 18): 0.313 µg/mL
- Stability in AB White, 21-25° C. (content by LCMSMS) (day 19): 0.316 µg/mL
- Stability in AB White, 21-25° C. (content by LCMSMS) (day 22): 0.322 µg/mL
- Stability in AB White, 21-25° C. (content by LCMSMS) (day 23): 0.316 µg/mL
- Stability in AB White, 21-25° C. (content by LCMSMS) (day 24): 0.308 µg/mL
- Stability in AB White, 21-25° C. (content by LCMSMS) (day 25): 0.310 µg/mL
- Stability in AB White, 21-25° C. (content by LCMSMS) (day 26): 0.308 µg/mL
- Stability in AB White, 21-25° C. (content by LCMSMS) (day 29): 0.317 µg/mL
- Stability in AB White, 21-25° C. (content by LCMSMS) (day 30): 0.317 µg/mL
- Stability in AB White, 21-25° C. (content by LCMSMS) (day 60): 0.306 µg/mL
- Stability in AB White, 21-25° C. (content by LCMSMS) (day 90): 0.305 µg/mL
- Stability in AB White, 21-25° C. (content by LCMSMS) (day 120): 0.318 µg/mL
- Stability in AB White, 21-25° C. (content by LCMSMS) (day 150): 0.312 µg/mL
- Stability in AB White, 21-25° C. (content by LCMSMS) (day 180): 0.315 µg/mL
- Stability in AB White, 21-25° C. (content by LCMSMS) (day 210): 0.307 µg/mL
- Stability in AB White, 21-25° C. (content by LCMSMS) (day 240): 0.304 µg/mL
- Stability in AB White, 21-25° C. (content by LCMSMS) (day 270): 0.316 µg/mL
- Stability in AB White, 21-25° C. (content by LCMSMS) (day 300): 0.312 µg/mL
- Stability in AB White, 21-25° C. (content by LCMSMS) (day 330): 0.312 µg/mL
- Stability in AB White, 21-25° C. (content by LCMSMS) (day 360): 0.310 µg/mL
- Stability in AB White, 21-25° C. (content by LCMSMS) (day 390): 0.303 µg/mL
- Stability in AB White, 21-25° C. (content by LCMSMS) (day 420): 0.312 µg/mL
- Stability in AB White, 21-25° C. (content by LCMSMS) (day 450): 0.310 µg/mL
- Stability in AB White, 21-25° C. (content by LCMSMS) (day 480): 0.294 µg/mL
- Stability in AB White, 21-25° C. (content by LCMSMS) (day 510): 0.293 µg/mL
- Stability in AB White, 21-25° C. (content by LCMSMS) (day 540): 0.294 µg/mL
- Stability in AB White, 21-25° C. (content by LCMSMS) (day 570): 0.295 µg/mL
